Experimental findings from patent US20130137760A1, “GAMBOGIC AMINE, A SELECTIVE TRKA AGONIST WITH NEUROPROTECTIVE ACTIVITY” (EMORY UNIVERSITY, priority 2007, published 2013) are described below.

The test system of this test is infarct volume. The test can be described thus: Transient middle cerebral artery occlusion (MCAO) stroke model, infarct volume. Also on record: species or system rats. The note with it: rat, in vivo. How it is done: To further determine the neuroprotective potential in vivo, test compounds can be tested in a transient middle cerebral artery occlusion (MCAO) stroke model in adult male rats. After 2 h MCAO followed by reperfusion, the animals receive vehicle or test compounds (2 mg/kg) 5 min prior to the onset of reperfusion.
A representative brain slice stained with TTC 24 h after MCAO in vehicle-treated and compound-treated rats can be subjected to area and volume measurements from TTC sections to indicate whether treatments with the compound substantially reduces infarct volumes in this transient ischemic model of stroke. […]
To further determine the neuroprotective potential in vivo, the gambogic amine can be tested in a transient middle cerebral artery occlusion (MCAO) stroke model in adult male rats. […] LDF (laser-Doppler flowmetry) can be measured over the ipsilateral parietal cortex. The effects of the gambogic amine on relative CBF (cerebral blood flow) can be evaluated. After filament withdrawal (120 min), relative CBF can also be measured in the vehicle-treated group and gambogic amine-treated groups, and compared with preischemic levels.
Rats can be used in a study of focal ischemia. […] Using a SurgiVet (model V3304; Waukesha, Wis., USA) pulse oximeter, blood SpO2 can be monitored and maintained at levels 90%. […]

Consider `CC(C)=CCC[C@]1(C)C=Cc2c(O)c3c(c(CC=C(C)C)c2O1)O[C@]12C(=C[C@@H]4CC1C(C)(C)O[C@@]2(C/C=C(/C)C(N)=O)C4=O)C3=O` [gambogic amide], for which the “decrease of stroke-induced infarct volume” value is on record as “effectively decrease”.
